From patent EP4806891A1 (Kangbaida (Sichuan) Biotechnology Co., Ltd., priority 2023, dated 2025)

Molecular target: T1, HEK-Blue-hTLR8 cells (Homo sapiens, UniProt Q9NR97)
T1 construct: expressed in transfected cells; host or cells: HEK-Blue-hTLR8 cells (HEK293-derived reporter line)
T1 sequence (Q9NR97 27-1041): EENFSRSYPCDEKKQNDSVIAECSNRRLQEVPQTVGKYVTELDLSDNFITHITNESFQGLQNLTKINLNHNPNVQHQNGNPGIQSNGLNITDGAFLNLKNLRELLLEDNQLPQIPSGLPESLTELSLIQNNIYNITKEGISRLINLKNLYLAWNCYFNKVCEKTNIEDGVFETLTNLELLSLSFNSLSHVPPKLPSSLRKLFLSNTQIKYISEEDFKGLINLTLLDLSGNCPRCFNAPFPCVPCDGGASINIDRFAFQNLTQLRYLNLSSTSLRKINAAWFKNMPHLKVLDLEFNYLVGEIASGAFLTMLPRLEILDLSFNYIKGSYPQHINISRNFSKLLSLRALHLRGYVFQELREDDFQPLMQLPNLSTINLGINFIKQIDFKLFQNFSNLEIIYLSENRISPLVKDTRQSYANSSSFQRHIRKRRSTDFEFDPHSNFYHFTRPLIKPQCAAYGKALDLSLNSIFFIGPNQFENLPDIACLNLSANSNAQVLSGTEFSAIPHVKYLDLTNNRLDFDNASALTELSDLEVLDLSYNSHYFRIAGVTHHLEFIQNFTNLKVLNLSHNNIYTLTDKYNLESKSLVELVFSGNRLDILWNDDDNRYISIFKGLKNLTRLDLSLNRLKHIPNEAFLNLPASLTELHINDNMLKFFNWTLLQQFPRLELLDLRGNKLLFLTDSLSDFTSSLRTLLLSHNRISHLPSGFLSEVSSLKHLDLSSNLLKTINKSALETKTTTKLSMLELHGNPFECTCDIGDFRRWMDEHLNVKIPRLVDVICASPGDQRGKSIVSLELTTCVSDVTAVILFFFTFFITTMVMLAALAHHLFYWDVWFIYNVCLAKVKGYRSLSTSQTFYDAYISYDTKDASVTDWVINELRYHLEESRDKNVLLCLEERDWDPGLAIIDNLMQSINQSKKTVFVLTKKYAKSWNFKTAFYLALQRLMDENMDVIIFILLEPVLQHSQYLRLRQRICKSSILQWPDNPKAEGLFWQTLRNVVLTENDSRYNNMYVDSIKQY
Assay: HEK-Blue-hTLR8 cell inhibition assay
Assay type: cell-based
Conditions: R848 3 µM, 16 h, OD 620 nm, read-out: TLR8 IC50
Method in brief: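 Cells were pre-incubated 4 h, then co-treated 16 h at 37 °C with compound (10 doses, 0.5–10000 nM final) plus R848 (0.8 µM for TLR7, 3 µM for TLR8) or ODN2006 (1 µM, TLR9). Reporter OD620 gave inhibition relative to DMSO blank and agonist-only controls; IC50 came from curve fitting.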

| SMILES | IC50 |
| --- | --- |
| CN1CC2(CCC(c3nnc([C@]45CN(c6ccc(C#N)c7ncccc67)C[C@@]4(C(F)(F)F)C5)o3)CC2)C1 [Compound 13, 5-((1S,5R)-1-(5-(2-methyl-2-azaspiro[3.5]nonan-7-yl)-1,3,4-oxadiazol-2-yl)-5-(trifluoromethyl)-3-azabicyclo[3.1.0]hexan-3-yl)quinoline-8-carbonitrile] | < 100 nM |
| CN(C)CCc1nnc([C@]23CN(c4ccc(C#N)c5ncccc45)C[C@@]2(C(F)(F)F)C3)o1 [Compound 51, 5-((1S,5R)-1-(5-(2-(dimethylamino)ethyl)-1,3,4-oxadiazol-2-yl)-5-(trifluoromethyl)-3-azabicyclo[3.1.0]hexan-3-yl)quinoline-8-carbonitrile] | < 100 nM |
| CN1CCC(c2nnc([C@]34CN(c5ccc(C#N)c6ncccc56)C[C@@]3(C(F)(F)F)C4)[nH]2)CC1 [Compound 9, 5-((1S,5R)-1-(5-(1-methylpiperidin-4-yl)-4H-1,2,4-triazol-3-yl)-5-(trifluoromethyl)-3-azabicyclo[3.1.0]hexan-3-yl)quinoline-8-carbonitrile] | < 100 nM |
| CN1[C@@H]2CC[C@H]1C[C@H](c1nnc([C@]34CN(c5ccc(C#N)c6ncccc56)C[C@@]3(C(F)(F)F)C4)o1)C2 [Compound 11, 5-((1S,5R)-1-(5-((1R,3S,5S)-8-methyl-8-azabicyclo[3.2.1]octan-3-yl)-1,3,4-oxadiazol-2-yl)-5-(trifluoromethyl)-3-azabicyclo[3.1.0]hexan-3-yl)quinoline-8-carbonitrile] | < 100 nM |
| N#Cc1ccc(N2C[C@]3(c4nnc([C@H]5CC[C@H](N)CC5)o4)C[C@]3(C(F)(F)F)C2)c2cccnc12 [Compound 20, 5-((1S,5R)-1-(5-((1R,4S)-4-aminocyclohexyl)-1,3,4-oxadiazol-2-yl)-5-(trifluoromethyl)-3-azabicyclo[3.1.0]hexan-3-yl)quinoline-8-carbonitrile] | < 100 nM |
| N#Cc1ccc(N2C[C@]3(c4nnc(C5=CCNC5)o4)C[C@]3(C(F)(F)F)C2)c2cccnc12 [Compound 22, 5-((1S,5R)-1-(5-(2,5-dihydro-1H-pyrrol-3-yl)-1,3,4-oxadiazol-2-yl)-5-(trifluoromethyl)-3-azabicyclo[3.1.0]hexan-3-yl)quinoline-8-carbonitrile] | < 100 nM |
| N#Cc1ccc(N2C[C@]3(c4nnc(C5CC6(CNC6)C5)o4)C[C@]3(C(F)(F)F)C2)c2cccnc12 [Compound 18, 5-((1S,5R)-1-(5-(2-azaspiro[3.3]heptan-6-yl)-1,3,4-oxadiazol-2-yl)-5-(trifluoromethyl)-3-azabicyclo[3.1.0]hexan-3-yl)quinoline-8-carbonitrile] | < 100 nM |
| CN1CCC(O)(c2nnc([C@]34CN(c5ccc(C(F)(F)F)c6ncccc56)C[C@@]3(C(F)(F)F)C4)o2)CC1 [Compound 94, 1-methyl-4-(5-((1S,5R)-5-(trifluoromethyl)-3-(8-(trifluoromethyl)quinolin-5-yl)-3-azabicyclo[3.1.0]hexan-1-yl)-1,3,4-oxadiazol-2-yl)piperidin-4-ol] | < 100 nM |
| CN1CC(c2nnc([C@]34CN(c5ccc(C#N)c6ncccc56)C[C@@]3(C(F)(F)F)C4)o2)C1 [Compound 39, 5-((1S,5R)-1-(5-(1-methylazetidin-3-yl)-1,3,4-oxadiazol-2-yl)-5-(trifluoromethyl)-3-azabicyclo[3.1.0]hexan-3-yl)quinoline-8-carbonitrile] | < 100 nM |
| FC(F)(F)c1ccc(N2C[C@]3(c4nnc(C5(F)CCNCC5)o4)C[C@]3(C(F)(F)F)C2)c2cccnc12 [Compound 3, 2-(4-fluoropiperidin-4-yl)-5-((1S,5R)-5-(trifluoromethyl)-3-(8-(trifluoromethyl)quinolin-5-yl)-3-azabicyclo[3.1.0]hexan-1-yl)-1,3,4-oxadiazole] | < 100 nM |
| N#Cc1ccc(N2C[C@]3(c4nnc(C5(F)CNC5)o4)C[C@]3(C(F)(F)F)C2)c2cccnc12 [Compound 32, 5-((1S,5R)-1-(5-(3-Fluoroazetidin-3-yl)-1,3,4-oxadiazol-2-yl)-5-(trifluoromethyl)-3-azabicyclo[3.1.0]hexan-3-yl)quinoline-8-carbonitrile] | < 100 nM |
| CN(C)Cc1nnc([C@]23CN(c4ccc(C#N)c5ncccc45)C[C@@]2(C(F)(F)F)C3)o1 [Compound 42, 5-((1S,5R)-1-(5-((dimethylamino)methyl)-1,3,4-oxadiazol-2-yl)-5-(trifluoromethyl)-3-azabicyclo[3.1.0]hexan-3-yl)quinoline-8-carbonitrile] | < 1000 nM |

The remaining lines, values ahead:

| IC50 | SMILES |
| --- | --- |
| < 100 nM | CN(C)CC#Cc1nnc([C@]23CN(c4ccc(C#N)c5ncccc45)C[C@@]2(C(F)(F)F)C3)o1 [Compound 25, 5-((1S,5R)-1-(5-(3-(dimethylamino)prop-1-yn-1-yl)-1,3,4-oxadiazol-2-yl)-5-(trifluoromethyl)-3-azabicyclo[3.1.0]hexan-3-yl)quinoline-8-carbonitrile] |
| < 100 nM | N#Cc1ccc(N2C[C@]3(c4nnc([C@H]5CN(CC(N)=O)CCO5)o4)C[C@]3(C(F)(F)F)C2)c2cccnc12 [Compound 56, 2-((R)-2-(5-((1S,5R)-3-(8-cyanoquinolin-5-yl)-5-(trifluoromethyl)-3-azabicyclo[3.1.0]hexan-1-yl)-1,3,4-oxadiazol-2-yl)morpholino)acetamide] |
| < 100 nM | CN1CCC(c2nnc([C@]34CN(c5ccc(C#N)c6ncnn56)C[C@@]3(C(F)(F)F)C4)o2)CC1 [Compound 91, 5-((1S,5R)-1-(5-(1-methylpiperidin-4-yl)-1,3,4-oxadiazol-2-yl)-5-(trifluoromethyl)-3-azabicyclo[3.1.0]hexan-3-yl)-[1,2,4]triazolo[1,5-a]pyridine-8-carbonitrile] |
| < 100 nM | CN1CC2(CC(c3nnc([C@]45CN(c6ccc(C#N)c7ncccc67)C[C@@]4(C(F)(F)F)C5)o3)C2)C1 [Compound 19, 5-((1S,5R)-1-(5-(2-methyl-2-azaspiro[3.3]heptan-6-yl)-1,3,4-oxadiazol-2-yl)-5-(trifluoromethyl)-3-azabicyclo[3.1.0]hexan-3-yl)quinoline-8-carbonitrile] |
| < 100 nM | N#Cc1ccc(N2C[C@]3(c4nnc(C5CNCC(F)C5)o4)C[C@]3(C(F)(F)F)C2)c2cccnc12 (stereo partly drawn) [Compound 45, 5-((1R,5S)-1-((difluoro-3-methyl)-12-fluoraneyl)-5-(5-(5-fluoropiperidin-3-yl)-1,3,4-oxadiazol-2-yl)-3-azabicyclo[3.1.0]hexan-3-yl)quinoline-8-carbonitrile] |
| < 100 nM | CN1CC(Cc2nnc([C@]34CN(c5ccc(C(F)(F)F)c6ncccc56)C[C@@]3(C(F)(F)F)C4)o2)C1 [Compound 95, 2-((1-methylazetidin-3-yl)methyl)-5-((1S,5R)-5-(trifluoromethyl)-3-(8-(trifluoromethyl)quinolin-5-yl)-3-azabicyclo[3.1.0]hexan-1-yl)-1,3,4-oxadiazole] |
| < 100 nM | N#Cc1ccc(N2C[C@]3(c4nnc(C5CCN(CC(N)=O)CC5)o4)C[C@]3(C(F)(F)F)C2)c2cccnc12 [Compound 17, 2-(4-(5-((1S,5R)-3-(8-cyanoquinolin-5-yl)-5-(trifluoromethyl)-3-azabicyclo[3.1.0]hexan-1-yl)-1,3,4-oxadiazol-2-yl)piperidin-1-yl)acetamide] |
| < 100 nM | CN1CCC(Oc2nnc([C@]34CN(c5ccc(C#N)c6ncccc56)C[C@@]3(C(F)(F)F)C4)o2)CC1 [Compound 15, 5-((1S,5R)-1-(5-((1-methylpiperidin-4-yl)oxy)-1,3,4-oxadiazol-2-yl)-5-(trifluoromethyl)-3-azabicyclo[3.1.0]hexan-3-yl)quinoline-8-carbonitrile] |
| < 1000 nM | CN1CCC(c2nnc([C@]34CN(c5c(Br)cc(C#N)n6ncc(Br)c56)C[C@@]3(C(F)(F)F)C4)o2)CC1 [Compound 85, 3,5-dibromo-4-((1S,5R)-1-(5-(1-methylpiperidin-4-yl)-1,3,4-oxadiazol-2-yl)-5-(trifluoromethyl)-3-azabicyclo[3.1.0]hexan-3-yl)pyrazolo[1,5-a]pyridine-7-carbonitrile] |
| < 100 nM | COc1ccc(N2C[C@]3(c4nnc(C5CCN(C)CC5)o4)C[C@]3(C(F)(F)F)C2)c2cccnc12 [Compound 66, 2-((1S,5R)-3-(8-methoxyquinolin-5-yl)-5-(trifluoromethyl)-3-azabicyclo[3.1.0]hexan-1-yl)-5-(1-methylpiperidin-4-yl)-1,3,4-oxadiazole] |
